# Molecular target: T1, MyD88^TIR (Homo sapiens, UniProt Q99836)
# T1 construct: MyD88 (residues 148–296); 6xHis; made in house; host or cells: E. coli BL21 (DE3)
# Assay: T‐Surf phage library (P8 and P3) selection against MyD88^TIR, four rounds, NGS read counts
# Assay type: binding
# Settings: for P8_MyD88 Rank (after) / P8_MyD88 Rank (before): P8 library; for Population: P8_MyD88 pool: P8 T-Surf phage library, 4th round of selection against MyD88 TIR, share of NGS reads; for P3_MyD88 Rank (after) / P3_MyD88 Rank (before): P3 library
# Description: T‐Surf libraries were screened against the immobilized TIR domains of two major human TLR adaptor proteins, MAL^TIR and MyD88^TIR, allowing cross‐species selection of TIR‐binding motifs with 190 946 TIR‐derived peptides in a single binding assay (Scheme 1). Enriched phage pools from the fourth round of selection were analyzed using NGS after barcoding the peptide‐coding regions of the phage pools.
# Phage display screening was performed by coating two wells of a 96‐well plate (Maxisorp, Thermo Fisher Scientific) with 100 µL of 5 µg mL^−1 TIR domains overnight; then, the coated wells were blocked with 200 µL of blocking buffer (0.2% BSA in PBS) and set aside for 1 h at 4 °C with gentle shaking. Next, 100 µL of the phage library was added to the wells and incubated for 1 h at room temperature (RT; 20 – 22 °C) with gentle shaking. The plate was washed four times with PBS containing 0.5% Tween‐20; the bound phages were eluted by adding 100 µL of 100 mM HCl to each well. The elute was neutralized with 10 µL of 1.0 M Tris‐HCl (pH 11.0). E. coli TG1 cells were grown to the log phase (A600 = ≈0.6), and 1 mL of the culture was incubated with 100 µL of the eluted phages for 30 min at 37 °C, with shaking at 200 rpm. Next, 1 µL of M13KO7 helper phages was added, followed by incubation for 45 min at 37 °C, with shaking. Subsequently, the cells were transferred to 25 mL of 2× yeast extract tryptone/carbenicillin/kanamycin medium and incubated overnight at 37 °C with shaking at 200 rpm. The amplified phages were precipitated with 20% PEG‐8000/2.5 M NaCl to be used for the next round of selection.
# The naïve T‐Surf libraries in P8 and P3 and the enriched phage pools after four rounds were barcoded for NGS as previously described.^[ [59] ^] Briefly, 5 µL of the phage pool was used as a template for 20 cycles of a 50 µL PCR reaction using […] each of forward and reverse barcoded primers and PrimeSTAR Max DNA Polymerase. The PCR products were purified using Expin Gel SV (GeneAll). The NGS samples were quantified using qPCR, following the qPCR Quantification Protocol Guide (KAPA Library Quantification kits for Illumina Sequencing Platform), and qualified using the TapeStation High Sensitivity D1000 ScreenTape (Agilent Technologies). The indexed libraries were further sequenced by Macrogen (Seoul, Republic of Korea) using the NovaSeq platform (Illumina) with 100 bp paired‐end reads. The reads were demultiplexed by barcodes and filtered for an average Phred quality score of at least 30, followed by trimming the flanking consensus sequences using Cutadapt (version 2.3). Peptide sequence populations were analyzed according to the read counts.
# [1] = P8_MyD88: rank by NGS read count after grouping
# [2] = P8_MyD88: rank by NGS read count before grouping
# [3] = selection against MyD88, rank after grouping
# [4] = selection against MyD88, rank before grouping
# [5] = P8_MyD88: rank by count after grouping
# [6] = P8_MyD88: rank by count before grouping
# [7] = 4R selection against MyD88, rank after grouping
# [8] = 4R selection against MyD88, rank before grouping
# [9] = P3_MyD88: rank by count after grouping
# [10] = P3_MyD88: rank by count before grouping
# [11] = selection against MyD88, rank by count after grouping
# [12] = selection against MyD88, rank by count before grouping
# T1 sequence (Q99836 148-296): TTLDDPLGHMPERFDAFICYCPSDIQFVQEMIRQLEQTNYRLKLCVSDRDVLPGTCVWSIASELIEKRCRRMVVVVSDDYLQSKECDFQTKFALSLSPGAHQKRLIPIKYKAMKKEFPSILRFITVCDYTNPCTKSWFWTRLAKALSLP
sequence,measurement,setting,value
DRSIWDRLLYSLHVTE,Rank (after),[1],996
same,Rank (before),[2],3141
DRVWDYLLPNLEGQAG,P8_MyD88 Rank (after),[3],545
same,P8_MyD88 Rank (before),[4],3073
DSDPGSDLLIKIWAAL,Rank (after),[5],166
same,Rank (before),[6],185
same,Population,,0.00694%
DSFFWDRLLYILHVTE,P8_MyD88 Rank (after),[7],654
same,P8_MyD88 Rank (before),[8],3075
DSFFWGRLLYSLHVTE,Rank (after),[1],970
same,Rank (before),[2],3074
DSHESEIIKEIVDTIV,Rank (after),[9],163
same,Rank (before),[10],967
DSLFWDRLLPNLEGPAG,P8_MyD88 Rank (after),[7],645
same,P8_MyD88 Rank (before),[8],3104
DSLFWDRLLYSL,Population,,0.00732%
DSLFWDRLLYSLHVT,P8_MyD88 Rank (after),"selection against MyD88 TIR, rank by count after grouping",219
same,P8_MyD88 Rank (before),"selection against MyD88 TIR, rank by count before grouping",355
DSLFWDRLLYSLHVTD,Population,,0.00732%
DSLFWDRLLYSLQFTE,Rank (after),[1],933
same,Rank (before),[2],3097
DSLIWDRLLYSIKVTE,P8_MyD88 Rank (after),[11],737
same,P8_MyD88 Rank (before),[12],3124
DSQDLDWLYERLVSLL,P8_MyD88 Rank (after),[7],621
same,P8_MyD88 Rank (before),[8],2497
DSQSSLLKGEADLVGQ,P3_MyD88 Rank (after),[11],736
same,P3_MyD88 Rank (before),[12],2071
DSQVLDWFYERLVSLL,Rank (after),[1],982
same,Rank (before),[2],2496
DSVCLDRLLYSLHVTE,P8_MyD88 Rank (after),[7],582
same,P8_MyD88 Rank (before),[8],3130
DSVFWDLLRYSLHVTE,Rank (after),[5],466
same,Rank (before),[6],3127
DSWTSAALYEALHALL,Rank (after),[5],156
same,Rank (before),[6],172
same,Population,,0.00809%
DTALTNSGFHTLRDND,Rank (after),[9],450
same,Rank (before),[10],2091
DTILEKVQSIAPELLR,Rank (after),[9],401
same,Rank (before),[10],2092
DTKLKEGDCVPPELLR,P3_MyD88 Rank (after),[7],664
same,P3_MyD88 Rank (before),[8],2090
DTKLKKGESIAPALMR,P3_MyD88 Rank (after),[11],704
same,P3_MyD88 Rank (before),[12],2101
DTKLKKGESIAPELVL,Rank (after),[9],185
same,Rank (before),[10],972
DTKLKKGESIAPERLP,Rank (after),[9],116
same,Rank (before),[10],973
DTKLKKGRKHCAGTAA,Rank (after),[9],454
same,Rank (before),[10],2099
DVLYWALTEAGIRVFR,Rank (after),[5],119
same,Rank (before),[6],128
same,Population,,0.015%
DVLYWALTEAGLRGFR,P8_MyD88 Rank (after),[3],578
same,P8_MyD88 Rank (before),[4],2557
DVLYYALIDAGIRVFR,Rank (after),[5],182
same,Rank (before),[6],216
DVVCDYLLPNLEGPAG,P8_MyD88 Rank (after),[7],606
same,P8_MyD88 Rank (before),[8],2555
DWAWDYLLPNLEGSAG,Rank (after),[5],432
same,Rank (before),[6],2483
DWEWDYRLPNLEGPAC,P8_MyD88 Rank (after),[11],745
same,P8_MyD88 Rank (before),[12],2487
DWEWDYRLPNLEGPPG,Rank (after),[1],891
same,Rank (before),[2],2486
DWEWEYLRPNLEGTAG,P8_MyD88 Rank (after),[11],768
same,P8_MyD88 Rank (before),[12],2488
DWGWDYLLPQLEGSAG,Rank (after),[1],990
same,Rank (before),[2],2482
DWGWGYLLPNLEGPAG,P8_MyD88 Rank (after),[11],707
same,P8_MyD88 Rank (before),[12],2481
DWLPGRTLFENLWASV,Rank (after),[5],152
same,Rank (before),[6],164
same,Population,,0.00886%
DWVCDYLLPDREGPAG,Rank (after),[1],984
same,Rank (before),[2],2474
DWVLDYLLPNLERPAG,Rank (after),[5],424
same,Rank (before),[6],2396
DWVLGYRLPNLEGPAG,P8_MyD88 Rank (after),[11],741
same,P8_MyD88 Rank (before),[12],2395
DWVWDELLKILYANETM,P8_MyD88 Rank (after),[7],647
same,P8_MyD88 Rank (before),[8],2457
DWVWDYLLLSVFQTIFARRTE,Rank (after),[5],425
same,Rank (before),[6],1033
DWVWDYLLPDLLGPAG,P8_MyD88 Rank (after),[11],700
same,P8_MyD88 Rank (before),[12],2416
DWVWDYLLPIWKAQR,P8_MyD88 Rank (after),[11],704
same,P8_MyD88 Rank (before),[12],2449
DWVWDYLLPKLECPSG,P8_MyD88 Rank (after),[7],579
same,P8_MyD88 Rank (before),[8],2447
DWVWDYLLPNGRPSG,Rank (after),[1],987
same,Rank (before),[2],2420

# Source: paper PMC11714206, “Massively Parallel Screening of Toll/Interleukin‐1 Receptor (TIR)‐Derived Peptides Reveals Multiple Toll‐Like Receptors (TLRs)‐Targeting Immunomodulatory Peptides” (Advanced Science, 2024)
